Experimental data as given in ChEMBL document CHEMBL1158195, “Antitumor germacranolides from Anvillea garcinii” (1996).
Values after ≈ are worked out from the molar mass of the structure shown. Active and inactive are the calls of the source. The calls are words filed in the database; no cut-off is given here.

What was measured:
NCI-H522 = test: Cytotoxicity against human NCI-H522 cells; format: functional; settings: read-out: ED50 (the source's name)
HOP-62 = test: Cytotoxicity against human HOP62 cells; format: functional; settings: read-out: ED50 (the source's name)
MOLT-4 = test: Cytotoxicity against human MOLT4 cells; format: functional; settings: read-out: ED50 (the source's name)
UO-31 = test: Cytotoxicity against human UO31 cells; format: functional; settings: read-out: ED50 (the source's name)
Malme-3M = test: Cytotoxicity against human MALME-3M cells; format: functional; settings: read-out: ED50 (the source's name)
SW-620 = test: Cytotoxicity against human SW620 cells; format: functional; settings: read-out: ED50 (the source's name)
[1] = system: Human immunodeficiency virus; test: Antiviral activity against HIV in human H9 cells assessed as virus-induced cytopathic effect; format: functional, organism-based
LOX IMVI = test: Cytotoxicity against human LOXIMVI cells; format: functional; settings: read-out: ED50 (the source's name)
PC-3 = test: Cytotoxicity against human PC3 cells; format: functional; settings: read-out: ED50 (the source's name)
SNB-75 = test: Cytotoxicity against human SNB75 cells; format: functional; settings: read-out: ED50 (the source's name)
SF-268 = test: Cytotoxicity against human SF268 cells; format: functional; settings: read-out: ED50 (the source's name)
OVCAR-8 = test: Cytotoxicity against human OVCAR8 cells; format: functional; settings: read-out: ED50 (the source's name)
DU-145 = test: Cytotoxicity against human DU145 cells; format: functional; settings: read-out: ED50 (the source's name)
ACHN = test: Cytotoxicity against human ACHN cells; format: functional; settings: read-out: ED50 (the source's name)
CCRF-CEM = test: Cytotoxicity against human CCRF-CEM cells; format: functional; settings: read-out: ED50 (the source's name)
MDA-MB-231 = test: Cytotoxicity against human MDA-MB-231 cells; format: functional; settings: read-out: ED50 (the source's name)
HCT-116 = test: Cytotoxicity against human HCT116 cells; format: functional; settings: read-out: ED50 (the source's name)
T47D = test: Cytotoxicity against human T47D cells; format: functional; settings: read-out: ED50 (the source's name)
BT-549 = test: Cytotoxicity against human BT549 cells; format: functional; settings: read-out: ED50 (the source's name)
IGROV-1 = test: Cytotoxicity against human IGROV1 cells; format: functional; settings: read-out: ED50 (the source's name)

SMILES	EC50 (NCI-H522) [µg/mL]	EC50 (HOP-62) [µg/mL]	EC50 (MOLT-4) [µg/mL]	EC50 (UO-31) [µg/mL]	EC50 (Malme-3M) [µg/mL]	EC50 (SW-620) [µg/mL]	Activity [1]	EC50 (LOX IMVI) [µg/mL]	EC50 (PC-3) [µg/mL]	EC50 (SNB-75) [µg/mL]	EC50 (SF-268) [µg/mL]	EC50 (OVCAR-8) [µg/mL]	EC50 (DU-145) [µg/mL]	EC50 (ACHN) [µg/mL]	EC50 (CCRF-CEM) [µg/mL]	EC50 (MDA-MB-231) [µg/mL]	EC50 (HCT-116) [µg/mL]	EC50 (T47D) [µg/mL]	EC50 (BT-549) [µg/mL]	EC50 (IGROV-1) [µg/mL]
C=C1C(=O)O[C@H]2[C@H]1C[C@@H](O)[C@@]1(C)O[C@@H]1CC[C@@]1(C)O[C@@H]21	1.53 (≈ 5.46 µM)	4.82 (≈ 17.2 µM)	1.67 (≈ 5.96 µM)	4.76 (≈ 17 µM)	3.28 (≈ 11.7 µM)	3.72 (≈ 13.3 µM)	inactive	3.7 (≈ 13.2 µM)	7.59 (≈ 27.1 µM)	20.8 (≈ 74 µM)	13.5 (≈ 48.1 µM)	9.72 (≈ 34.7 µM)	10.2 (≈ 36.5 µM)	3.84 (≈ 13.7 µM)	1.44 (≈ 5.14 µM)	5.35 (≈ 19.1 µM)	4.96 (≈ 17.7 µM)	–	–	–
C=C1C(=O)O[C@H]2[C@H]1CC(=O)/C(C)=C/CC[C@@]1(C)O[C@@H]21	0.15 (≈ 0.572 µM)	0.63 (≈ 2.4 µM)	0.07 (≈ 0.267 µM)	0.28 (≈ 1.07 µM)	0.33 (≈ 1.26 µM)	0.21 (≈ 0.801 µM)	inactive	0.11 (≈ 0.419 µM)	0.9 (≈ 3.43 µM)	4.38 (≈ 16.7 µM)	1.73 (≈ 6.6 µM)	0.78 (≈ 2.97 µM)	3.3 (≈ 12.6 µM)	0.3 (≈ 1.14 µM)	0.05 (≈ 0.191 µM)	0.17 (≈ 0.648 µM)	0.45 (≈ 1.72 µM)	0.45 (≈ 1.72 µM)	0.34 (≈ 1.3 µM)	0.94 (≈ 3.58 µM)
C=C1C(=O)O[C@H]2[C@H]1C[C@H](O)[C@@]1(C)O[C@@H]1CC[C@@]1(C)O[C@@H]21	0.78 (≈ 2.78 µM)	5.74 (≈ 20.5 µM)	2.83 (≈ 10.1 µM)	4.79 (≈ 17.1 µM)	3.36 (≈ 12 µM)	3.81 (≈ 13.6 µM)	inactive	–	4.98 (≈ 17.8 µM)	22.5 (≈ 80.3 µM)	12.1 (≈ 43.2 µM)	5.32 (≈ 19 µM)	9.66 (≈ 34.5 µM)	5.07 (≈ 18.1 µM)	2.43 (≈ 8.67 µM)	–	4.65 (≈ 16.6 µM)	5.4 (≈ 19.3 µM)	3.86 (≈ 13.8 µM)	4.17 (≈ 14.9 µM)
C=C1C(=O)O[C@H]2[C@H]1C[C@@H](O)/C(C)=C/CC[C@@]1(C)O[C@@H]21	0.5 (≈ 1.89 µM)	1.32 (≈ 4.99 µM)	0.94 (≈ 3.56 µM)	7.63 (≈ 28.9 µM)	1.07 (≈ 4.05 µM)	1.08 (≈ 4.09 µM)	inactive	1.66 (≈ 6.28 µM)	11.6 (≈ 44 µM)	–	10.3 (≈ 39 µM)	4.07 (≈ 15.4 µM)	6.73 (≈ 25.5 µM)	1.91 (≈ 7.23 µM)	0.84 (≈ 3.18 µM)	4.49 (≈ 17 µM)	1.66 (≈ 6.28 µM)	1.54 (≈ 5.83 µM)	2.77 (≈ 10.5 µM)	8.63 (≈ 32.6 µM)
C=C1C(=O)O[C@H]2[C@H]1C[C@H](O)/C(C)=C/CC[C@@]1(C)O[C@@H]21	0.45 (≈ 1.7 µM)	4.57 (≈ 17.3 µM)	0.68 (≈ 2.57 µM)	3.88 (≈ 14.7 µM)	1.62 (≈ 6.13 µM)	0.55 (≈ 2.08 µM)	inactive	2.46 (≈ 9.31 µM)	–	8.53 (≈ 32.3 µM)	7.76 (≈ 29.4 µM)	4.75 (≈ 18 µM)	5.6 (≈ 21.2 µM)	2.21 (≈ 8.36 µM)	0.8 (≈ 3.03 µM)	4.99 (≈ 18.9 µM)	3.83 (≈ 14.5 µM)	–	–	3.91 (≈ 14.8 µM)
